Source: patent publication US12545665B2, “Crystal form of 6-(cyclopropanecarboxamido)-4-((2-methoxy-3-(1-methyl-1H-1,2,4-triazol-3-yl)phenyl)amino)-n-(methyl-d3) pyridazine-3-carboxamide” (Bristol-Myers Squibb Company, priority 2017, dated 2026)

How the values were obtained:
Format in all cases: physicochemical
[1] = Chemical stability (% Assay) of micronized Form A stored at different temperature and humidity conditions
Description: Samples of micronized Form A of Compound (I) were stored at different conditions of temperature and humidity for 4 weeks. The physical stability, characterized by DSC, TGA, and PXRD, were measured at 2 and 4 weeks.

[2] = Physical stability on storage, characterized by DSC, TGA and PXRD; details: samples stored for 4 weeks at different conditions of temperature and humidity, TGA, PXRD
Description: X-ray powder diffraction (PXRD) data were obtained using a Bruker C2 GADDS with Vantec-500 detector. The radiation was Cu Kα (40 KV, 40 mA). The sample-detector distance was […]. Incident optics include Goebel mirror and 0.3 mm collimator. Powder samples were placed in sealed glass capillaries of 1 mm or less in diameter; the capillary was rotated during data collection. Data were collected for 2≤2θ≤35° with a sample exposure time of at least 1000 seconds. The resulting two-dimensional diffraction arcs were integrated to create a traditional 1-dimensional PXRD pattern with a step size of 0.05 degrees 2θ in the range of ˜2 to ˜30 degrees 2θ.
Differential scanning calorimetry (DSC) experiments were performed in a TA Instruments™ model Q2000. The sample (about 2-6 mg) was weighed in an aluminum pan and recorded accurately recorded to a hundredth of a milligram, and transferred to the DSC. […] Data were collected between room temperature and 300° C. at 10° C./min heating rate. The plot was made with the endothermic peaks pointing down.
Thermal gravimetric analysis (TGA) experiments were performed in a TA Instruments™ model Q5000. The sample (about 10-30 mg) was placed in a platinum pan previously tared. […] The furnace was purged with nitrogen gas at 100 mL/min. Data were collected between room temperature and 300° C. at 10° C./min heating rate.

[3] = Moisture-sorption isotherm (VTI)
Description: Form A of Compound (I) is non-hygroscopic with less than 0.1 weight % gain between 25 to 75% relative humidity at 25° C.
Moisture-sorption isotherms were collected in a TA Instrument VTI-SA+ Vapor Sorption Analyzer using approximately 10 mg of sample. The sample was dried at 60° C. until the loss rate of 0.0005 wt %/min was obtained for 10 minutes. The sample was tested at 25° C. and 3 or 4, 5, 15, 25, 35, 45, 50, 65, 75, 85, and 95% relative humidity (RH). Equilibration at each relative humidity was reached when the rate of 0.0003 wt %/min for 35 minutes was achieved or a maximum of 600 minutes.

[4] = at the tested temperature and humidity conditions

[2H]C([2H])([2H])NC(=O)c1nnc(NC(=O)C2CC2)cc1Nc1cccc(-c2ncn(C)n2)c1OC [Form A of Compound (I), 6-(cyclopropanecarboxamido)-4-((2-methoxy-3-(1-methyl-1H-1,2,4-triazol-3-yl)phenyl)amino)-N-(methyl-d3)pyridazine-3-carboxamide]
% Assay ([1]; High Intensity Light/UV, 2 weeks): 99.3%
% Assay ([1]; High Intensity Light/UV, 4 weeks): 99.2%
Impurity profiles [1, 4]: remain unchanged
Physical or chemical degradation [1, 4]: no significant physical or chemical degradation
Change in chemical stability ([1]; samples of Table 2, stored up to 4 weeks): no measure change in chemical stability
% Assay ([1]; stored at 5° C. (control), 2 weeks): 99.2%
% Assay ([1]; stored at 5° C. (control), 4 weeks): 99.2%
% Assay ([1]; stored at 25° C./60% relative humidity (closed), 2 weeks): 99.2%
% Assay ([1]; stored at 25° C./60% relative humidity (closed), 4 weeks): 99.2%
% Assay ([1]; stored at 40° C./75% relative humidity (open), 2 weeks): 99.2%
% Assay ([1]; stored at 40° C./75% relative humidity (open), 4 weeks): 99.2%
% Assay ([1]; stored at 50° C., 2 weeks): 99.2%
% Assay ([1]; stored at 50° C., 4 weeks): 99.2%
Change in physical form [2]: No change in the physical form was detected
Weight gain ([3]; between 25 to 75% relative humidity at 25° C.): less than 0.1 weight %
Hygroscopicity ([3]; moisture sorption isotherm at 25° C.): non-hygroscopic
